Results reported in the supplement of paper PMC12463676, “Small-molecule dissolution of stress granules by redox modulation benefits ALS models” (Nature Chemical Biology, 2025).

compound: O=[As]([O-])(O)O.[K+] [potassium arsenate]; assay: thermal stability z-score vs DMSO; higher = more thermally stabilized by treatment; conditions: HeLa; arsenate concentration 1 mM
Method: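 Cellular thermal proteome profiling in HeLa cells treated with 1 mM arsenate for 1 h (DMSO pretreatment), heated to ten temperatures (37-66.3 °C). Soluble protein was quantified by TMT mass spectrometry relative to DMSO controls; the thermal stability score was transformed to a z-score; mean of n = 3 experiments.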
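Further: each temperature applied for 3 min, abundance score taken as mean log2 fold change at the two lowest temperatures, z-score obtained by mean subtraction and division by SD.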

Chain of UniProt Q9NP79 (Q9NP79 whole entry): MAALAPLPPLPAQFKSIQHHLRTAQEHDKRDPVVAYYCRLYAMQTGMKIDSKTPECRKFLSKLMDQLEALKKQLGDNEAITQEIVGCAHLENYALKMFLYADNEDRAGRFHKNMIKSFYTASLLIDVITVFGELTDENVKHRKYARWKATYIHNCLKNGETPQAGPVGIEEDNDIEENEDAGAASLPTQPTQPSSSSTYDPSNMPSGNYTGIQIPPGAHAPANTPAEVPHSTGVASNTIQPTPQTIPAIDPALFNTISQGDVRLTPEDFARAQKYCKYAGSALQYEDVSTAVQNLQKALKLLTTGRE
Chain of UniProt Q9Y248 (Q9Y248 whole entry): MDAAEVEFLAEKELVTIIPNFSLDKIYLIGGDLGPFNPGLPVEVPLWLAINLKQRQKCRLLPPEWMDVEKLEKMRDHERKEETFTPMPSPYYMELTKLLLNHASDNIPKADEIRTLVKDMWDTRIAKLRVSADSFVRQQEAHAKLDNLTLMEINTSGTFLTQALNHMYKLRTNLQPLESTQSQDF
Chain of UniProt Q16539 (Q16539 whole entry): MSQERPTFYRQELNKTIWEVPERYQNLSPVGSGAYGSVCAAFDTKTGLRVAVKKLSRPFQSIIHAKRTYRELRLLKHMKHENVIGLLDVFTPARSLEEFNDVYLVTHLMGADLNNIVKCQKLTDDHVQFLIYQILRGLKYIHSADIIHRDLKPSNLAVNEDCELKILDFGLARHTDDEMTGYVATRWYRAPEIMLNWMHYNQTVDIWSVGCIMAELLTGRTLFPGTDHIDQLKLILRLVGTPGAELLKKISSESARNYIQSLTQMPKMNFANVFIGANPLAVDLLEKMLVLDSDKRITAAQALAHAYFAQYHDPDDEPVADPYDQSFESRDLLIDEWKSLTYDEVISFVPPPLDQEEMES
Chain of UniProt Q9GZP4 (Q9GZP4 whole entry): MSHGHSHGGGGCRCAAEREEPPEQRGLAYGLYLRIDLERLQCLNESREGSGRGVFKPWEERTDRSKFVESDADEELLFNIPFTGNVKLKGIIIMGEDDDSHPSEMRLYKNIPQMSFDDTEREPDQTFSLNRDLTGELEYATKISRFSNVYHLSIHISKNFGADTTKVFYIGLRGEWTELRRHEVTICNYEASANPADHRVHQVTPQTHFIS
Chain of UniProt Q8IY47 (Q8IY47 whole entry): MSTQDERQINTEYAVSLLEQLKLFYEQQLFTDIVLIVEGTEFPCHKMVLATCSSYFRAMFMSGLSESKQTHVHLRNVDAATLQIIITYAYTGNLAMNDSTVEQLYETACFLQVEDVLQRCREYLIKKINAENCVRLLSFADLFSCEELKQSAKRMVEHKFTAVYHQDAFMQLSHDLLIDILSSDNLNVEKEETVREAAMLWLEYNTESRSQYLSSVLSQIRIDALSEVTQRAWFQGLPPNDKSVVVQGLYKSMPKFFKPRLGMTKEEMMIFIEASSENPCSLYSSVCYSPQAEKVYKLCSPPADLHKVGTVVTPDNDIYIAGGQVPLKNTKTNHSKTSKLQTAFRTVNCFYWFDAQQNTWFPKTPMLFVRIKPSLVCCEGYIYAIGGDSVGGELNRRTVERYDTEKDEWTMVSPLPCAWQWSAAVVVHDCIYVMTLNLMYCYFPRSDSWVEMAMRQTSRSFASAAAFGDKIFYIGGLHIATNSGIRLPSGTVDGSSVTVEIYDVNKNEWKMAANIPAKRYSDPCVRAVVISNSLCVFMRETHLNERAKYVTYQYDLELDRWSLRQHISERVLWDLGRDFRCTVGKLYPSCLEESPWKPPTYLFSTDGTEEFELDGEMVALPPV
Chain of UniProt Q99961 (Q99961 whole entry): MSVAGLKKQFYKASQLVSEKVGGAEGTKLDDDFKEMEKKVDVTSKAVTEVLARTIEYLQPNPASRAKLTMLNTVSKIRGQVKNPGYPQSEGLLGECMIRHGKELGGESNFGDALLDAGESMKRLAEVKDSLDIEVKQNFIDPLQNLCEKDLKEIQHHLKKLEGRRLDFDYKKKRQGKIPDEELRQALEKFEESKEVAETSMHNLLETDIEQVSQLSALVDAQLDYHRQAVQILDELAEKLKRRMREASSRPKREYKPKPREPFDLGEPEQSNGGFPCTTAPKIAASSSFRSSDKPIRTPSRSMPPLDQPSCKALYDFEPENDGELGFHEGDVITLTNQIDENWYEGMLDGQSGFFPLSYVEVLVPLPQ
Chain of UniProt P49902 (P49902 whole entry): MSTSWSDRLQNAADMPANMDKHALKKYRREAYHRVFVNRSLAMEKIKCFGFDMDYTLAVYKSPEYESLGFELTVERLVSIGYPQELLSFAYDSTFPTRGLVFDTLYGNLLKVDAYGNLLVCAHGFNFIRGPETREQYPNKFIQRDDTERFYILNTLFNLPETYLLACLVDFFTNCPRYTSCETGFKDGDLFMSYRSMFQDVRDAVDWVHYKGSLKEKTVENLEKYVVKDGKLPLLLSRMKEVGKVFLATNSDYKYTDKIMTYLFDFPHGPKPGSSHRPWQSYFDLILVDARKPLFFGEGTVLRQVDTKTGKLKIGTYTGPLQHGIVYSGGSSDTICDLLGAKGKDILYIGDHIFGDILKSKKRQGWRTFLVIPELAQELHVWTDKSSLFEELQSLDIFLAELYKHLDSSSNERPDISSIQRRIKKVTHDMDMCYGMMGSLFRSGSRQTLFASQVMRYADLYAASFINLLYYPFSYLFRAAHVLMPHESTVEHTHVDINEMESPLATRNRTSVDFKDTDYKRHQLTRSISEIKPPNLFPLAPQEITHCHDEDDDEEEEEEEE
Chain of UniProt P49917 (P49917 whole entry): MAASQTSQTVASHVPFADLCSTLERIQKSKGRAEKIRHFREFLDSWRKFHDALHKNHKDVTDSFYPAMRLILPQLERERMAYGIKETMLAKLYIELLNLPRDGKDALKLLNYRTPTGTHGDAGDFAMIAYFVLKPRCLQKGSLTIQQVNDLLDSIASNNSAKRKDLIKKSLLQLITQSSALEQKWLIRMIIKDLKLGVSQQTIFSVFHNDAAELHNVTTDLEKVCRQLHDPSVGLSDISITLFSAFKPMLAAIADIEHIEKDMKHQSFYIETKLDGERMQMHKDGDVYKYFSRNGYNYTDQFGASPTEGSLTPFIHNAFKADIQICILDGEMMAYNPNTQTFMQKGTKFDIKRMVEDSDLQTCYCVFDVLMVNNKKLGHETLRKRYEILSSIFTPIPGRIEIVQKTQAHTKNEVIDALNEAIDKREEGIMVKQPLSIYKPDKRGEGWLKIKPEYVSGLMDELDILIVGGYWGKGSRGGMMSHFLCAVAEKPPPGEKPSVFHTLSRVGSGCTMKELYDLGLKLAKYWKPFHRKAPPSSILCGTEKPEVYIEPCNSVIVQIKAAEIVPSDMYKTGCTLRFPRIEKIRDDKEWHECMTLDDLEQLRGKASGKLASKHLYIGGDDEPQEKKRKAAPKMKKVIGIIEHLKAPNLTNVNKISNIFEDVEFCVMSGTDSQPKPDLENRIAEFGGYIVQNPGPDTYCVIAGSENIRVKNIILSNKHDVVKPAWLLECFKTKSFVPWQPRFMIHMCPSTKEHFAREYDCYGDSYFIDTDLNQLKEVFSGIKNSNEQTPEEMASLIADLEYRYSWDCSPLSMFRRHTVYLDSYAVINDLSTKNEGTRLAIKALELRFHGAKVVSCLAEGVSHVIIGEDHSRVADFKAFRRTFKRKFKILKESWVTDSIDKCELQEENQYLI
Chain of UniProt Q8N6N3 (Q8N6N3 whole entry): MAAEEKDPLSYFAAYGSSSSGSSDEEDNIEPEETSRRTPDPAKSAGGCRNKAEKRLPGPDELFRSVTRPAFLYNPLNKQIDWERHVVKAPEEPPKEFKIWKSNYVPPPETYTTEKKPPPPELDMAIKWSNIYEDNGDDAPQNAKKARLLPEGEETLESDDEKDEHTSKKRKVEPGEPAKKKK
Chain of UniProt Q9UII4 (Q9UII4 whole entry): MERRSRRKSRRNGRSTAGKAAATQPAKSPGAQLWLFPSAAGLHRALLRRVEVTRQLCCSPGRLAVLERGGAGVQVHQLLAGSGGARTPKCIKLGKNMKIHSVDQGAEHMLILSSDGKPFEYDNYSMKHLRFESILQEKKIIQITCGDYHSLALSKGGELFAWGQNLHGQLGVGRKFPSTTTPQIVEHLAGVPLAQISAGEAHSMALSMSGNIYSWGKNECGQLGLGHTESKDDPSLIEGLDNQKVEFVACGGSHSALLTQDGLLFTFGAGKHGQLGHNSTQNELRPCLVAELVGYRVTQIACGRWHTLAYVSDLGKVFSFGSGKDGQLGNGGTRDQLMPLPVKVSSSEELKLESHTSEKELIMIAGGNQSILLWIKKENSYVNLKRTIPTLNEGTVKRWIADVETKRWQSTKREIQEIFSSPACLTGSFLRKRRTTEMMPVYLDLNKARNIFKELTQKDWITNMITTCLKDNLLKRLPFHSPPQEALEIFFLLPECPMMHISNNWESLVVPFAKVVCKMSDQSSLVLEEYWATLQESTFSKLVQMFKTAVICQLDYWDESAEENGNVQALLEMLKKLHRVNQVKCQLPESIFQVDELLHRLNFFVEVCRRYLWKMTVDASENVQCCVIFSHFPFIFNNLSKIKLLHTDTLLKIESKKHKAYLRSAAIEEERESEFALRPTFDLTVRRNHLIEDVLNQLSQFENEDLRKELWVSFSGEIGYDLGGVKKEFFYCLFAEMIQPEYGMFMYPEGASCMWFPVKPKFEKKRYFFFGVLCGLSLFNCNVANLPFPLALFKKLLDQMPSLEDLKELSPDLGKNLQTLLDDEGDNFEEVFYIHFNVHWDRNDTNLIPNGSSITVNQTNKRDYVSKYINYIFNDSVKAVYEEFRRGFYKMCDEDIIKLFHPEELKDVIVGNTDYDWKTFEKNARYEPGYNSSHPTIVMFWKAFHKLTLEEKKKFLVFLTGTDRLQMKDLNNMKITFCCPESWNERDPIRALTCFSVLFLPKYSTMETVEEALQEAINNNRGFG
Chain of UniProt P07203 (P07203 whole entry): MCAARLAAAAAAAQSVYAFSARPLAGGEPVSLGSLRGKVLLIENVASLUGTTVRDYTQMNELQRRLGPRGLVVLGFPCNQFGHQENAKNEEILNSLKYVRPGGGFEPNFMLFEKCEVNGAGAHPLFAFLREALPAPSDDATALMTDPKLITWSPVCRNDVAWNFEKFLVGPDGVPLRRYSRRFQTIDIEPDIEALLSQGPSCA

Target	thermal stability z-score
DDX20 (UniProt Q9UHI6)	-0.763
GRWD1 (UniProt Q9BQ67)	-0.541
UBAP1 (UniProt Q9NZ09)	-0.964
C1ORF52 (UniProt Q8N6N3)	-0.417
GPX1 (UniProt P07203)	-0.087
PTCD2 (UniProt Q8WV60)	-0.0322
RNF181 (UniProt Q9P0P0)	0.00117
CDA (UniProt P32320)	1.03
UBR4 (UniProt Q5T4S7)	0.242
SACS (UniProt Q9NZJ4)	0.0609
PIN4 (UniProt Q9Y237)	-0.422
NT5C2 (UniProt P49902)	-0.0391
CASC3 (UniProt O15234)	-1.15
GRN (UniProt P28799)	0.505
TPP2 (UniProt P29144)	0.194
RAC1 (UniProt P63000)	0.562
GPRIN1 (UniProt Q7Z2K8)	-0.256
HELZ2 (UniProt Q9BYK8)	-0.0872
POMK (UniProt Q9H5K3)	-0.285
TNFRSF10B (UniProt O14763)	0.582
SKIV2L (UniProt Q15477)	0.2
SLC6A9 (UniProt P48067)	-0.636
AGFG1 (UniProt P52594)	-0.387
HERC5 (UniProt Q9UII4)	0.512

Target	thermal stability z-score
KLC4 (UniProt Q9NSK0)	0.297
ASB6 (UniProt Q9NWX5)	0.506
PITHD1 (UniProt Q9GZP4)	0.158
GINS2 (UniProt Q9Y248)	0.0793
MAPK14 (UniProt Q16539)	0.772
TRIP12 (UniProt Q14669)	0.157
KBTBD2 (UniProt Q8IY47)	-0.0698
MAVS (UniProt Q7Z434)	-0.963
EFL1 (UniProt Q7Z2Z2)	0.402
BRD9 (UniProt Q9H8M2)	0.496
HNRNPUL1 (UniProt Q9BUJ2)	0.283
SH3GL1 (UniProt Q99961)	0.538
DARS (UniProt P14868)	-0.593
USP1 (UniProt O94782)	-0.221
CNNM4 (UniProt Q6P4Q7)	0.213
FLOT2 (UniProt Q14254)	-1.32
TIAL1 (UniProt Q01085)	-1.23
PGK1 (UniProt P00558)	-0.469
RPS4X (UniProt P62701)	-0.997
NOP14 (UniProt P78316)	-0.581
RXRA (UniProt P19793)	-0.255
HEATR1 (UniProt Q9H583)	-0.114
ADH5 (UniProt P11766)	-1.99
GDAP1 (UniProt Q8TB36)	-0.354

Target	thermal stability z-score
PPFIA1 (UniProt Q13136)	0.263
PARD3 (UniProt Q8TEW0)	-0.00597
CCNT1 (UniProt O60563)	0.178
NSF (UniProt P46459)	0.232
XRCC5 (UniProt P13010)	-0.403
MANBA (UniProt O00462)	-0.726
FAM83H (UniProt Q6ZRV2)	0.0326
RPP25L (UniProt Q8N5L8)	0.245
CDC23 (UniProt Q9UJX2)	-0.726
TACC2 (UniProt O95359)	0.409
VTA1 (UniProt Q9NP79)	-0.12
MTM1 (UniProt Q13496)	-0.804
LIG4 (UniProt P49917)	-0.107
SETD3 (UniProt Q86TU7)	0.0633
MBD3 (UniProt O95983)	-0.483
LMBRD2 (UniProt Q68DH5)	-0.111
MKI67 (UniProt P46013)	0.155
CUTA (UniProt O60888)	-0.0462
ILF2 (UniProt Q12905)	-1.96
PIBF1 (UniProt Q8WXW3)	-0.0727
RSPRY1 (UniProt Q96DX4)	-0.152
RPS29 (UniProt P62273)	-0.415
TXN2 (UniProt Q99757)	2.39

compound: NC(=O)CCCCC1CCSS1 [lipoamide]; assay: as above; conditions: HeLa; lipoamide concentration 100 µM; arsenate co-treatment: 1 mM arsenate 1 h
Method: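 Cellular thermal proteome profiling in HeLa cells. Cells were treated with 100 µM lipoamide for 1 h, with or without 1 mM arsenate for a further 1 h, then heated to ten temperatures (37-66.3 °C), and soluble protein was quantified by TMT mass spectrometry relative to 0.1% DMSO controls. The thermal stability score (sum of log2 fold changes minus the abundance score) was transformed to a z-score; mean of n = 3 experiments.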

Target	thermal stability z-score
DDX20 (UniProt Q9UHI6)	-0.457
GRWD1 (UniProt Q9BQ67)	0.304
UBAP1 (UniProt Q9NZ09)	-1.2
C1ORF52 (UniProt Q8N6N3)	0.477
GPX1 (UniProt P07203)	0.0953
PTCD2 (UniProt Q8WV60)	0.00948
RNF181 (UniProt Q9P0P0)	1.27
CDA (UniProt P32320)	0.868
UBR4 (UniProt Q5T4S7)	-0.162
SACS (UniProt Q9NZJ4)	-0.17
PIN4 (UniProt Q9Y237)	0.199
NT5C2 (UniProt P49902)	0.892
CASC3 (UniProt O15234)	0.25
GRN (UniProt P28799)	0.151
TPP2 (UniProt P29144)	0.657
RAC1 (UniProt P63000)	0.154
GPRIN1 (UniProt Q7Z2K8)	0.529
HELZ2 (UniProt Q9BYK8)	-0.0529
POMK (UniProt Q9H5K3)	0.213
TNFRSF10B (UniProt O14763)	-0.753
SKIV2L (UniProt Q15477)	-0.147
SLC6A9 (UniProt P48067)	-0.26
AGFG1 (UniProt P52594)	-0.348
HERC5 (UniProt Q9UII4)	0.139

Target	thermal stability z-score
KLC4 (UniProt Q9NSK0)	-1.48
ASB6 (UniProt Q9NWX5)	0.441
PITHD1 (UniProt Q9GZP4)	-0.537
GINS2 (UniProt Q9Y248)	-0.0167
MAPK14 (UniProt Q16539)	0.87
TRIP12 (UniProt Q14669)	-0.227
KBTBD2 (UniProt Q8IY47)	-0.0161
MAVS (UniProt Q7Z434)	0.0772
EFL1 (UniProt Q7Z2Z2)	-0.245
BRD9 (UniProt Q9H8M2)	0.218
HNRNPUL1 (UniProt Q9BUJ2)	0.162
SH3GL1 (UniProt Q99961)	-0.0464
DARS (UniProt P14868)	0.186
USP1 (UniProt O94782)	-0.779
CNNM4 (UniProt Q6P4Q7)	0.923
FLOT2 (UniProt Q14254)	0.746
TIAL1 (UniProt Q01085)	-0.227
PGK1 (UniProt P00558)	0.239
RPS4X (UniProt P62701)	0.35
NOP14 (UniProt P78316)	-0.68
RXRA (UniProt P19793)	0.08
HEATR1 (UniProt Q9H583)	-1.73
ADH5 (UniProt P11766)	1.89
GDAP1 (UniProt Q8TB36)	-0.141

Target	thermal stability z-score
PPFIA1 (UniProt Q13136)	-0.28
PARD3 (UniProt Q8TEW0)	0.02
CCNT1 (UniProt O60563)	0.149
NSF (UniProt P46459)	-0.331
XRCC5 (UniProt P13010)	-0.555
MANBA (UniProt O00462)	-1.33
FAM83H (UniProt Q6ZRV2)	-0.0915
RPP25L (UniProt Q8N5L8)	0.36
CDC23 (UniProt Q9UJX2)	-0.546
TACC2 (UniProt O95359)	0.243
VTA1 (UniProt Q9NP79)	0.703
MTM1 (UniProt Q13496)	0.198
LIG4 (UniProt P49917)	-0.146
SETD3 (UniProt Q86TU7)	-0.479
MBD3 (UniProt O95983)	0.379
LMBRD2 (UniProt Q68DH5)	-0.904
MKI67 (UniProt P46013)	1.7
CUTA (UniProt O60888)	1.1
ILF2 (UniProt Q12905)	0.0392
PIBF1 (UniProt Q8WXW3)	-0.108
RSPRY1 (UniProt Q96DX4)	0.302
RPS29 (UniProt P62273)	1.14
TXN2 (UniProt Q99757)	-0.504

same assay, conditions: HeLa; lipoamide concentration 100 µM; arsenate co-treatment: none

Target	thermal stability z-score
DDX20 (UniProt Q9UHI6)	-0.527
GRWD1 (UniProt Q9BQ67)	0.0318
UBAP1 (UniProt Q9NZ09)	-0.177
C1ORF52 (UniProt Q8N6N3)	0.0555
GPX1 (UniProt P07203)	0.0517
PTCD2 (UniProt Q8WV60)	-0.0661
RNF181 (UniProt Q9P0P0)	1.68
CDA (UniProt P32320)	1
UBR4 (UniProt Q5T4S7)	-0.16
SACS (UniProt Q9NZJ4)	-0.0653
PIN4 (UniProt Q9Y237)	-0.0862
NT5C2 (UniProt P49902)	-0.608
CASC3 (UniProt O15234)	0.544
GRN (UniProt P28799)	-0.477
TPP2 (UniProt P29144)	0.44
RAC1 (UniProt P63000)	-0.0299
GPRIN1 (UniProt Q7Z2K8)	-0.0428
HELZ2 (UniProt Q9BYK8)	-0.115
POMK (UniProt Q9H5K3)	-0.243
TNFRSF10B (UniProt O14763)	-0.414
SKIV2L (UniProt Q15477)	-0.384
SLC6A9 (UniProt P48067)	-0.8
AGFG1 (UniProt P52594)	-0.424
HERC5 (UniProt Q9UII4)	0.601

Target	thermal stability z-score
KLC4 (UniProt Q9NSK0)	0.259
ASB6 (UniProt Q9NWX5)	-0.288
PITHD1 (UniProt Q9GZP4)	0.337
GINS2 (UniProt Q9Y248)	0.00771
MAPK14 (UniProt Q16539)	-0.0481
TRIP12 (UniProt Q14669)	-0.162
KBTBD2 (UniProt Q8IY47)	-0.0919
MAVS (UniProt Q7Z434)	0.294
EFL1 (UniProt Q7Z2Z2)	0.0406
BRD9 (UniProt Q9H8M2)	0.153
HNRNPUL1 (UniProt Q9BUJ2)	0.44
SH3GL1 (UniProt Q99961)	0.144
DARS (UniProt P14868)	-0.0144
USP1 (UniProt O94782)	-0.444
CNNM4 (UniProt Q6P4Q7)	0.49
FLOT2 (UniProt Q14254)	0.534
TIAL1 (UniProt Q01085)	0.0243
PGK1 (UniProt P00558)	0.256
RPS4X (UniProt P62701)	0.0222
NOP14 (UniProt P78316)	-0.438
RXRA (UniProt P19793)	0.208
HEATR1 (UniProt Q9H583)	-1.13
ADH5 (UniProt P11766)	0.761
GDAP1 (UniProt Q8TB36)	-0.313

Target	thermal stability z-score
PPFIA1 (UniProt Q13136)	-0.239
PARD3 (UniProt Q8TEW0)	0.0237
CCNT1 (UniProt O60563)	0.145
NSF (UniProt P46459)	-0.0542
XRCC5 (UniProt P13010)	0.584
MANBA (UniProt O00462)	-1.4
FAM83H (UniProt Q6ZRV2)	0.0556
RPP25L (UniProt Q8N5L8)	0.117
CDC23 (UniProt Q9UJX2)	-0.315
TACC2 (UniProt O95359)	0.134
VTA1 (UniProt Q9NP79)	0.296
MTM1 (UniProt Q13496)	0.0354
LIG4 (UniProt P49917)	0.0757
SETD3 (UniProt Q86TU7)	-0.251
MBD3 (UniProt O95983)	0.252
LMBRD2 (UniProt Q68DH5)	-0.0118
MKI67 (UniProt P46013)	1.37
CUTA (UniProt O60888)	0.709
ILF2 (UniProt Q12905)	0.153
PIBF1 (UniProt Q8WXW3)	-0.184
RSPRY1 (UniProt Q96DX4)	0.576
RPS29 (UniProt P62273)	1.17
TXN2 (UniProt Q99757)	0.00983
